Results from patent US20100152267A1, “NOVEL RIFAMYCIN 3,4-(3-SUBSTITUTED AMINOMETHYL) FUSED PYRROLO DERIVATIVES” (priority 2008, published 2010).
Values after ≈ are worked out from the molar mass of the structure shown.

Key:
Type in all cases: cell-based
[1] = system: Enterococcus faecium OC 3312 vancomycin resistant; experiment: MIC by microdilution broth method (NCCLS), A Strain; settings: read-out: MIC A Strain
Description: (§1) Minimum inhibitory concentration (MIC) is an indicator of in vitro antibacterial activity. […] The in vitro antimicrobial activity of representative compounds of the present invention was determined by the microdilution broth method following the test method from the National Committee for Clinical Laboratory Standards (NCCLS). This method is described in the NCCLS Document M7-A4, Vol. 17, No. 2, “Methods for Dilution Antimicrobial Susceptibility Test for Bacteria that Grow Aerobically—Fourth Edition”, which is incorporated herein by reference.
(§2) In this method two-fold serial dilutions of test compound in cation adjusted Mueller-Hinton broth were added to wells in microdilution trays. The test organisms were prepared by adjusting the turbidity of actively growing broth cultures so that the final concentration of test organism after it is added to the wells was approximately 5×10^4 CFU/well. Following inoculation of the microdilution trays, the trays were incubated at 35° C. for 16-20 hours and then read. The amount of growth in the wells containing the test compound was compared with the amount of growth in the growth-control wells (no test compound) used in each tray.
(§3) Representative compounds of the present invention were tested against a variety of pathogenic bacteria with results as listed in Table 2, below.

[2] = system: Methicillin-resistant Staphylococcus aureus OC 3726 COL; experiment: MIC by microdilution broth method (NCCLS), B Strain; settings: read-out: MIC B Strain
Description: as §1, §2, §3

[3] = system: Staphylococcus aureus OC4172; experiment: MIC by microdilution broth method (NCCLS), C Strain; settings: cation adjusted Mueller-Hinton broth, 35° C., 16-20 hours
Description: as §1, §2, §3

[4] = system: Methicillin-resistant Staphylococcus aureus OC 2878; experiment: MIC by microdilution broth method (NCCLS), D Strain; settings: read-out: MIC D Strain
Description: as §1, §2, §3

| SMILES | MIC [1] | MIC [2] | MIC [3] | MIC [4] |
| --- | --- | --- | --- | --- |
| CO[C@H]1/C=C/O[C@@]2(C)Oc3c(C)c(O)c4c(O)c(c5c(CN(Cc6ccc(N7CCN(C)CC7)cc6)Cc6ccc(N7CCN(C)CC7)cc6)c[nH]c5c4c3C2=O)NC(=O)/C(C)=C\C=C\[C@H](C)[C@H](O)[C@@H](C)[C@@H](O)[C@@H](C)[C@H](OC(C)=O)[C@@H]1C [Compound 5] | 1 µg/mL (≈ 0.888 µM) | 0.25 µg/mL (≈ 0.222 µM) | 0.25 µg/mL (≈ 0.222 µM) | 0.25 µg/mL (≈ 0.222 µM) |
| CO[C@H]1/C=C/O[C@@]2(C)Oc3c(C)c(O)c4c(O)c(c5c(CN)c[nH]c5c4c3C2=O)NC(=O)/C(C)=C\C=C\[C@H](C)[C@H](O)[C@@H](C)[C@@H](O)[C@@H](C)[C@H](OC(C)=O)[C@@H]1C [Compound 1] | < 1 µg/mL | 0.25 µg/mL (≈ 0.333 µM) | 0.12 µg/mL (≈ 0.16 µM) | 0.25 µg/mL (≈ 0.333 µM) |
| CO[C@H]1/C=C/O[C@@]2(C)Oc3c(C)c(O)c4c(O)c(c5c(CNCc6ccc(N7CCN(C)CC7)cc6)c[nH]c5c4c3C2=O)NC(=O)/C(C)=C\C=C\[C@H](C)[C@H](O)[C@@H](C)[C@@H](O)[C@@H](C)[C@H](OC(C)=O)[C@@H]1C [Compound 4] | 1 µg/mL (≈ 1.07 µM) | 0.5 µg/mL (≈ 0.533 µM) | 1 µg/mL (≈ 1.07 µM) | 0.5 µg/mL (≈ 0.533 µM) |
| CO[C@H]1/C=C/O[C@@]2(C)Oc3c(C)c(O)c4c(O)c(c5c(CN(C)Cc6ccc(N7CCN(C)CC7)cc6)c[nH]c5c4c3C2=O)NC(=O)/C(C)=C\C=C\[C@H](C)[C@H](O)[C@@H](C)[C@@H](O)[C@@H](C)[C@H](OC(C)=O)[C@@H]1C [Compound 3] | 2 µg/mL (≈ 2.1 µM) | 1 µg/mL (≈ 1.05 µM) | 1 µg/mL (≈ 1.05 µM) | 1 µg/mL (≈ 1.05 µM) |
| CO[C@H]1/C=C/O[C@@]2(C)Oc3c(C)c(O)c4c(O)c(c5c(CN6CCCCC6)c[nH]c5c4c3C2=O)NC(=O)/C(C)=C\C=C\[C@H](C)[C@H](O)[C@@H](C)[C@@H](O)[C@@H](C)[C@H](OC(C)=O)[C@@H]1C [Compound 2] | 8 µg/mL (≈ 9.78 µM) | 4 µg/mL (≈ 4.89 µM) | 4 µg/mL (≈ 4.89 µM) | 4 µg/mL (≈ 4.89 µM) |
